According to patent US20070179125A1, “Aminopyrimidines useful as kinase inhibitors” (priority 2005, published 2007):

What was measured:
Assay type in all cases: biochemical
[1] = target: T1, Aurora-2 (Aurora A) (Homo sapiens, UniProt O14965); assay: Aurora-2 (Aurora A) inhibition assay, coupled enzyme; details: 400 μM ATP, 570 μM Kemptide, 40 nM Aurora-2, 30° C.
T1 sequence (O14965 1-403): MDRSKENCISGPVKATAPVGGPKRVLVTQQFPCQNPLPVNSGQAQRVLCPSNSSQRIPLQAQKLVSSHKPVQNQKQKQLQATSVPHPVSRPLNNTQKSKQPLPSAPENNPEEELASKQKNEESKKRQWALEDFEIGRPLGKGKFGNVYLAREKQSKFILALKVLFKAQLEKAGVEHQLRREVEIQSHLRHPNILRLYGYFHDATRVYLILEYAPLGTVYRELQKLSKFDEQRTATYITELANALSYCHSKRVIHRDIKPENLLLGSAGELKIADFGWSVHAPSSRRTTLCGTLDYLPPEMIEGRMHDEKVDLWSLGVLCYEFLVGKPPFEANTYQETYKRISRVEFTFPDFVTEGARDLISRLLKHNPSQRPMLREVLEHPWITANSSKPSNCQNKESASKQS
Protocol: Compounds were screened for their ability to inhibit Aurora-2 using a standard coupled enzyme assay (Fox et al., Protein Sci., (1998) 7, 2249). Assays were carried out in a mixture of 100 mM Hepes (pH7.5), 10 mM MgCl2, 1 mM DTT, 25 mM NaCl, 2.5 mM phosphoenolpyruvate, 300 μM NADH, 30 μg/ml pyruvate kinase and 10 μg/ml lactate dehydrogenase. Final substrate concentrations in the assay are 400 μM ATP (Sigma Chemicals) and 570 μM peptide (Kemptide, American Peptide, Sunnyvale, Calif.). Assays were carried out at 30° C. and in the presence of 40 nM Aurora-2.
An assay stock buffer solution was prepared containing all of the reagents listed above, with the exception of Aurora-2 and the test compound of interest. 55 μl of the stock solution was placed in a 96 well plate followed by addition of 2 μl of DMSO stock containing serial dilutions of the test compound (typically starting from a final concentration of 7.5 μM). The plate was preincubated for 10 minutes at 30° C. and the reaction initiated by addition of 10 μl of Aurora-2. Initial reaction rates were determined with a Molecular Devices SpectraMax Plus plate reader over a 10 minute time course. IC50 and Ki data were calculated from non-linear regression analysis using the Prism software package (GraphPad Prism version 3.0cx for Macintosh, GraphPad Software, San Diego Calif., USA).

[2] = target: T2, human Itk kinase (Homo sapiens, UniProt Q08881); assay: Itk inhibition assay, radioactivity-based; details: Ki(app); 7.5 μM ATP, 3 μM SAM68 peptide, 50 nM Itk, 25° C.
T2 sequence (Q08881 1-620): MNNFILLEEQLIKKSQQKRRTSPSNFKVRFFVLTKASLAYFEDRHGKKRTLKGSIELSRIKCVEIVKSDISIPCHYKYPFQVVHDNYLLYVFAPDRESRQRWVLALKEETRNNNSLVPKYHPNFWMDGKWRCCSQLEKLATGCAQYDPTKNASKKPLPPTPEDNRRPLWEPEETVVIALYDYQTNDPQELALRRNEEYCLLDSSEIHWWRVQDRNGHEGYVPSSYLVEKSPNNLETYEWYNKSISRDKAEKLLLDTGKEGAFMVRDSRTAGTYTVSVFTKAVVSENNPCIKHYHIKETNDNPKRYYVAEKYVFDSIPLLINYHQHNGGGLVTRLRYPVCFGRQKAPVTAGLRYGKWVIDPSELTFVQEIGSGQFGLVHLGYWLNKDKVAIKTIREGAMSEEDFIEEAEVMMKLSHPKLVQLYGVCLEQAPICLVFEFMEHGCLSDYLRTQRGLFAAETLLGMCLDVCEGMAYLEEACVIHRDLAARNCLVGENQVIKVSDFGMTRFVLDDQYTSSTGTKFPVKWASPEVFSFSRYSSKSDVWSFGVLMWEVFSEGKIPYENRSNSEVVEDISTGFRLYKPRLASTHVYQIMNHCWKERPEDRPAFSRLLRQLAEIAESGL
Protocol: The compounds of the present invention were evaluated as inhibitors of human Itk kinase using a radioactivity-based assay.
Assays were carried out in a mixture of 20 mM MOPS (pH 7.0), 10 mM MgCl2, 0.1% BSA and 1 mM DTT. Final substrate concentrations in the assay were 7.5 μM [γ-^33P]ATP (400 μCi ^33P ATP/μmol ATP, Amersham Pharmacia Biotech/Sigma Chemicals) and 3 μM peptide (SAM68 protein Δ332-443). Assays were carried out at 25° C. in the presence of 50 nM Itk. An assay stock buffer solution was prepared containing all of the reagents listed above, with the exception of ATP and the test compound of interest. 50 μL of the stock solution was placed in a 96 well plate followed by addition of 2 μL of DMSO stock containing serial dilutions of the test compound (typically starting from a final concentration of 50 μM with 2-fold serial dilutions) in duplicate (final DMSO concentration 2%). The plate was pre-incubated for 10 minutes at 25° C. and the reaction initiated by addition of 50 μL [γ-^33P]ATP (final concentration 7.5 μM).
The reaction was stopped after 10 minutes by the addition of 100 μL 0.2M phosphoric acid+0.01% TWEEN 20. […]
Ki(app) data were calculated from non-linear regression analysis of the initial rate data using the Prism software package (GraphPad Prism version 3.0cx for Macintosh, GraphPad Software, San Diego Calif., USA).

[3] = target: JAK-2 enzyme (Homo sapiens, UniProt O60674); assay: JAK2 inhibition assay; details: 12 μM ATP, 15 μM poly(Glu)4Tyr
Protocol: (§1) Compounds were screened for their ability to inhibit JAK using the assay shown below. Reactions were carried out in a kinase buffer containing 100 mM HEPES (pH 7.4), 1 mM DTT, 10 mM MgCl2, 25 mM NaCl, and 0.01% BSA.
(§2) Substrate concentrations in the assay were 5 μM ATP (200 uCi/μmole ATP) and 1 μM poly(Glu)4Tyr. Reactions were carried out at 25° C. and 1 nM JAK3.
(§3) To each well of a 96 well polycarbonate plate was added 1.5 μl of a candidate JAK3 inhibitor along with 50 μl of kinase buffer containing 2 μM poly(Glu)4Tyr and 10 μM ATP. This was then mixed and 50 μl of kinase buffer containing 2 nM JAK3 enzyme was added to start the reaction. After 20 minutes at room temperature (25 C), the reaction was stopped with 50 μl of 20% trichloroacetic acid (TCA) that also contained 0.4 mM ATP. The entire contents of each well were then transferred to a 96 well glass fiber filter plate using a TomTek Cell Harvester. After washing, 60 μl of scintillation fluid was added and ^33P incorporation detected on a Perkin Elmer TopCount.
The assays are as described above in Example 3 except that JAK-2 enzyme is used, the final poly(Glu)4Tyr concentration is 15 μM, and final ATP concentration is 12 μM.

[4] = target: Aurora-1 (Aurora B) (Homo sapiens, UniProt Q96GD4); assay: Aurora-1 (Aurora B) inhibition assay (radiometric); details: 800 μM ATP, Kemptide, 25° C.
Protocol: An assay buffer solution was prepared which consisted of 25 mM HEPES (pH 7.5), 10 mM MgCl2, 0.1% BSA and 10% glycerol. A 22 nM Aurora-B solution, also containing 1.7 mM DTT and 1.5 mM Kemptide (LRRASLG), was prepared in assay buffer. To 22 μL of the Aurora-B solution, in a 96-well plate, was added 2 μl of a compound stock solution in DMSO and the mixture allowed to equilibrate for 10 minutes at 25° C. The enzyme reaction was initiated by the addition of 16 μl stock [γ-^33P]-ATP solution (˜20 nCi/μL) prepared in assay buffer, to a final assay concentration of 800 μM. The reaction was stopped after 3 hours by the addition of 16 μL 500 mM phosphoric acid and the levels of ^33P incorporation into the peptide substrate were determined by the following method.
A phosphocellulose 96-well plate (Millipore, Cat no. MAPHNOB50) was pre-treated with 100 μL of a 100 mM phosphoric acid prior to the addition of the enzyme reaction mixture (40 μL). […] Levels of non-enzyme catalyzed background radioactivity were determined by adding 16 μL of the 500 mM phosphoric acid to control wells, containing all assay components (which acts to denature the enzyme), prior to the addition of the [γ-^33P]-ATP solution. Levels of enzyme catalyzed ^33P incorporation were calculated by subtracting mean background counts from those measured at each inhibitor concentration. […]

[5] = target: T3, JAK3 (Homo sapiens, UniProt P52333); assay: JAK3 inhibition assay; details: 5 μM ATP, 1 μM poly(Glu)4Tyr, 1 nM JAK3, 25° C.
T3 sequence (P52333 1-1124): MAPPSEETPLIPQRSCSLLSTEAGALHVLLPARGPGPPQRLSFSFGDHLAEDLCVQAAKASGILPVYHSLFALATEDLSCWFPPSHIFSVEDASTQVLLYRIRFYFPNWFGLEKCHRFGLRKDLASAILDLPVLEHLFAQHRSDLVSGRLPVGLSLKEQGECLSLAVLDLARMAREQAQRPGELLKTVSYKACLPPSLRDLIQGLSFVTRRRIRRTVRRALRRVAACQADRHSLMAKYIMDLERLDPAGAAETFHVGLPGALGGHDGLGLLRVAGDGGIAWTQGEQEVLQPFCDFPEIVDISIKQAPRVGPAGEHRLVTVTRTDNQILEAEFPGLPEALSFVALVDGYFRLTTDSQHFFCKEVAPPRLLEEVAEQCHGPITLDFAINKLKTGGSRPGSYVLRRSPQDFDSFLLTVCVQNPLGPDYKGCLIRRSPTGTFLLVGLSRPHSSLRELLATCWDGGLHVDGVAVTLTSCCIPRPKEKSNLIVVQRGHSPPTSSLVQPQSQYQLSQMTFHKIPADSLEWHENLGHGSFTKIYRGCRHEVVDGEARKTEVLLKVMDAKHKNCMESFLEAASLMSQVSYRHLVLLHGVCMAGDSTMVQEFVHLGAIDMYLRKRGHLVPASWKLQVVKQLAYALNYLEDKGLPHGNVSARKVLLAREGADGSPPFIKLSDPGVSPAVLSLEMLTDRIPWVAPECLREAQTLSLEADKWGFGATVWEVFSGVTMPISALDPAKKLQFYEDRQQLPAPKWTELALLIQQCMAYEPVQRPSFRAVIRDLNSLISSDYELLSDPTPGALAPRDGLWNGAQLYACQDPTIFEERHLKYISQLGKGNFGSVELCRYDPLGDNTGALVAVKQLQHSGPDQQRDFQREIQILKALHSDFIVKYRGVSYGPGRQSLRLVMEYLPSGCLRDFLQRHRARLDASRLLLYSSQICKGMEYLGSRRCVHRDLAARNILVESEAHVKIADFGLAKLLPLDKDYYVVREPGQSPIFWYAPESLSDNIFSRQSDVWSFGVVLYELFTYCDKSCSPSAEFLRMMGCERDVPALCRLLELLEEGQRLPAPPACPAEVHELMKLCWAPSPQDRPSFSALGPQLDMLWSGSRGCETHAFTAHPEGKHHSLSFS
Protocol: as §1, §2, §3

Sequence of JAK-2 enzyme (O60674 whole entry, species assumed): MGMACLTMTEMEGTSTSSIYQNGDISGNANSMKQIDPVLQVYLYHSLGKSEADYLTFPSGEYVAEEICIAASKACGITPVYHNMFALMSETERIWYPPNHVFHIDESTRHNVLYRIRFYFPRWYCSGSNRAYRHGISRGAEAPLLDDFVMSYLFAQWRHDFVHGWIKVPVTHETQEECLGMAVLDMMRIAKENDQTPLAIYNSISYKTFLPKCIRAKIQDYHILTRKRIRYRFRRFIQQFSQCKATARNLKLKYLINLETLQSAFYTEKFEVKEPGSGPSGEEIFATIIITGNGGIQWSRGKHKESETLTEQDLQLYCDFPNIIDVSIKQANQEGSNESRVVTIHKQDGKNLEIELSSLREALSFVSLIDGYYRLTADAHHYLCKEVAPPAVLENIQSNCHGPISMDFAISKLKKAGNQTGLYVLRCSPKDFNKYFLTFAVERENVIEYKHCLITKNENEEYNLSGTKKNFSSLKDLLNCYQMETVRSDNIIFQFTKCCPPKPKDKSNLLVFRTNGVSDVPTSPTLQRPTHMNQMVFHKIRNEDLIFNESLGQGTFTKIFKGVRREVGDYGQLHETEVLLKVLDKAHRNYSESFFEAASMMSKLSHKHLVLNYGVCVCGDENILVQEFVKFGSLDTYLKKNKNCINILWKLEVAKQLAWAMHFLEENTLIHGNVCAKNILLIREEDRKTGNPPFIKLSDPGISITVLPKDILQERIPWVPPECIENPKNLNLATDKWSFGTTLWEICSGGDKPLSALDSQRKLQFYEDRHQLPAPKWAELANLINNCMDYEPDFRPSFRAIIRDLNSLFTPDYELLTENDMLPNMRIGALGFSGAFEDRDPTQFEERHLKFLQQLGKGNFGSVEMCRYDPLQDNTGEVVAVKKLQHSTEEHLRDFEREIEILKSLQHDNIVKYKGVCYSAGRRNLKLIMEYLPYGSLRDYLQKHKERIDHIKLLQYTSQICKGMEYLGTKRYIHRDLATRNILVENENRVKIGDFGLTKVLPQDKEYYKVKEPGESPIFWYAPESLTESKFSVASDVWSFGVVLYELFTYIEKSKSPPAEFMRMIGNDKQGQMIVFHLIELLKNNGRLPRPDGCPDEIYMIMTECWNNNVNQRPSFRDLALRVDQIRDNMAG
Sequence of Aurora-1 (Aurora B) (Q96GD4 whole entry, species assumed): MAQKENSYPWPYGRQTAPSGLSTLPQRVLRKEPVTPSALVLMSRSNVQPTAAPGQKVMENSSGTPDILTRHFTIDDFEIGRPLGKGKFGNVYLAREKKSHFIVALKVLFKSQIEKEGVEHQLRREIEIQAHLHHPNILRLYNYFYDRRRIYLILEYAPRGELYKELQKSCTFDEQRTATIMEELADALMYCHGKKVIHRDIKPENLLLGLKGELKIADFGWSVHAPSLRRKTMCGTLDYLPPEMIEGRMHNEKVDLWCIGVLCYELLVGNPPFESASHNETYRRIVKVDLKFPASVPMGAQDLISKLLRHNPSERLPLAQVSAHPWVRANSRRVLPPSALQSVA

Row | Compound | Ki [1] [nM] | Ki [2] [nM] | Ki [3] [nM] | Ki [4] [nM] | Ki [5] [nM]
1 | Cc1cc(Nc2cc(N3CCC3)nc(O[C@H]3CCN(C(=O)OC(C)(C)C)C3)n2)[nH]n1 [Compound I-1, (S)-3-[4-Azetidin-1-yl-6-(5-methyl-2H-pyrazol-3-ylamino)-pyrimidin-2-yloxy]-pyrrolidine-1-carboxylic acid tert-butyl ester] | < 50 | < 1000 | < 250 | – | –
2 | Cc1cc(Nc2cc(N3CC(F)(C4CC4)C3)nc(O[C@H]3CCN(C(=O)c4cc(Cl)ccc4F)C3)n2)[nH]n1 [Compound I-3, (S)-(5-chloro-2-fluorophenyl)(3-(4-(3-cyclopropyl-3-fluoroazetidin-1-yl)-6-(3-methyl-1H-pyrazol-5-ylamino)pyrimidin-2-yloxy)pyrrolidin-1-yl)methanone] | – | – | – | < 25 | < 250
